# Measurements: US20180265867A1, “NUCLEIC ACID MOLECULES WITH ENHANCED ACTIVITY” (priority 2015, published 2018)
# d = 2'-deoxy (DNA); r = 2'-OH (RNA)
# Legend:
# [1] = Thermal denaturation (Tm) of siRNA duplexes; assay type: physicochemical; conditions: for Tm: 7.5 mM phosphate buffer pH 7.0 containing 140 mM KCl, 1 μM strands, 40-95° C.
# Method in brief: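 1 μM RNA in phosphate buffer pH 7.0 with 140 mM KCl, annealed at 90 °C for 3 min and slowly cooled, then melted 40–95 °C at 0.5 °C/min monitoring 260 nm. Tm from first-derivative maxima, mean of three runs (±0.3 °C).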
# MG63 and HOB cells = assay: Cell proliferation / toxicity by MTS assay; assay type: cell-based, human; conditions: 50 and 100 nM, 24 h post transfection
# Protocol: Cell proliferation was assessed by MTS (3-(4,5-dimethylthiazol-2-yl)-5-(3-carboxymethoxyphenyl)-2-(4-sulfophenyl)-2H-tetrazolium, inner salt) reagent assay: MG63 cells were seeded at a density of 35 000 cells in 24-well culture plates, and cultured for 24 hours as mentioned above. Cells were transfected with 50 nM or 100 nM concentrations of cpRNA and negative control siRNAs with or without MATra-si, while control wells were left untreated. Each transfection experiment was performed in triplicate. Post-transfection, cells were incubated for 24 hours at 37° C. The viable cells were evaluated by MTS assay, using CellTiter 96®AQueousOne Solution Cell Proliferation Assay (Promega, USA) according to the manufacturer's protocol. The enzymatic reduction in MTS to formazan was quantified by an ELISA plate reader (Thermo Scientific) at 490 nm.
# Thus, the role of siRNA topography on immune activation and cellular toxicity was investigated because increased RNA length has been reported to cause toxicity with increased interferon (IFN)-β expression. toxicity studies were performed using the MTS assay with two concentrations of GAPDH siRNA (50 and 100 nM) with different overhang lengths (dT2, dT5, and dT8) in MG63 and HOB cells and compared it with the scrambled siRNA sequence (FIG. 5).
# MG63 cells = assay: Fluorescence / confocal microscopy of cellular distribution in MG63 cells; assay type: cell-based, human; conditions: fluorescently labelled, transfection reagent free
# Protocol: Cellular uptake experiments were performed by plating cells (1×10^4) in an 8 well chamber slide. At 70% confluency, the cells were transfected with 50 nM Cy3-cpRNA and incubated at 37° C. for 24 h. Control wells were left untreated. Each transfection was performed in triplicate. […] The slides were mounted using Vectashield mounting medium containing 4′, 6-diamidino-2-phenylindole (DAPI) (Vector Labs, Burlingame, Calif.) to stain the nuclei of cells.
# MG63—human osteosarcoma cells were cultured in α-MEM (Sigma-Aldrich, Haverhill, UK) medium containing 10% FBS, 1% L-Glutamine, and 1% antibiotics (PeSt) at 37° C. with 5% CO2. One day prior to the siRNA treatment, 35,000 cells were plated per each well of a 24-well plate. On the experiment day, cells were replaced with 10% heat inactivated-FBS containing α-MEM medium with 1% L-Glutamine, and 1% antibiotics (PeSt). Fluorescently (Cy3) labelled CP-siRNA and nicked CP-siRNA having GAPDH targeting sequence (final concentration: 50 nM) was given to the each well. After 24 hours the cells were washed with PBS and fixed with 4% formaldehyde for 20 mins at room temperature and then washed twice with PBS. DAPI (1 ug/ml in PBS) was added to cells for 5 mins and then washed with PBS. The cells were then visualized in Nikon TiU at 20×+1.5× and analysed with the Nikon Imaging software.
Substance,Tm [1] [°C],cytotoxicity (MTS assay) (MG63 and HOB cells),cellular distribution (MG63 cells),Δ Tm ([1]; Tm relative to canonical siRNA (dT2)) [°C],drop in Tm ([1]; as compared to canonical siRNA)
"dT2: Canonical GAPDH siRNA, sense SEQ ID NO: 1, antisense SEQ ID NO: 2, dTdT 3′-overhang on both strands (sense CCGAGCCACAUCGCUCAGATT; antisense UCUGAGCGAUGUGGCUCGGTT; sugars from the 5' end r19 d2, backbone not given here) [reference compound]",81.2,do not impose toxicity,localized distribution to endosome,,
"dT5: GAPDH siRNA, sense SEQ ID NO: 3 with dT5 3′-overhang, antisense SEQ ID NO: 2 with dT2 (sense CCGAGCCACAUCGCUCAGATTTTT; antisense UCUGAGCGAUGUGGCUCGGTT; sense: sugars from the 5' end r19 d5, backbone not given here; antisense: sugars from the 5' end r19 d2, backbone not given here)",80.6,do not impose toxicity,perinuclear localization within cytosol,−0.6,about 0.5 °C
